Test results as given in article PMC3762901, “Cyclic Peptide Inhibitors of the β-Sliding Clamp in Staphylococcus aureus” (PLoS ONE, 2013).

Assays:
[1] = system: recA-lacZ transcriptional fusion (SOS response); assay: SOS induction, recA-lacZ β-galactosidase; assay type: cell-based, Staphylococcus aureus; conditions: 2 μg/ml; after 210 minutes; LB, 37°C
Experimental: To test whether the cessation of DNA accumulation was accompanied by induction of the SOS response we measured the effects of both peptides on induction of the recA gene. Strain MTC157 contains a recA-lacZ transcriptional fusion in its chromosome. […] The level of induction was less that that observed for the DNA damaging agent mitomycin C (about 3-fold increase after 210 minutes). It is likely that both peptides results in malfunctioning of the replisome, and this provides the signal for SOS induction in these cells.
Figure 6 Peptide III-5 and III-6 induces the SOS response in S. aureus. S. aureus strain MTH157 (recA::lacZ) was grown exponentially in LB medium at 37°C. At an optical density OD600 = 0.1, Mitomycin C or Peptides III-5/III-6 were added to final concentrations of 2 μg/ml or 50 μg/ml, respectively. At the times indicated, samples were taken and the level of β-galactosidase determined (Materials and Methods).

E. coli = assay: Intracellular expression of cyclic DnaA1-86 in E. coli (growth, morphology); assay type: cell-based, Escherichia coli; conditions: IntC::DnaA1-86::IntN induced with 2 mM IPTG, 30°C; effect attributed mainly to the cyclic fragment
Experimental: We used the SICLOPPS technology for intracellular synthesis of cyclic peptide libraries. Cyclic peptides were chosen over their linear counterparts to limit degradation by cellular proteases. We initially tested the SICLOPPS system by inserting the coding region for amino acids 1−86 (Domain I) of DnaA from E.coli between the C- and N-terminal parts of the split intein.
Figure 2 Intracellular production of cyclic DnaA1-86. Expression of IntC::DnaA1−86::IntN was induced by addition of 2 mM IPTG to cells growing exponentially at 30°C or by plating exponential growing cells on plates containing 2 mM IPTG followed by incubation at 30C. A. Intein-DnaA precursor and splice products were visualized by Western blot using polyclonal anti-DnaA antibodies. B. Growth on LB plates containing 2 mM IPTG (top) and phase-contrast images (bottom) of expressing IntC::IntN (left) or after three hours expression of IntC::DnaA1−86::IntN (right).
Because all cells contained a mix of precursor and splice product it was not clear which species were responsible for filamentation. We therefore mutated the splice site at the IntC-DnaA1−86 (IntC-HNS-DnaA1−86 to IntC-QYS-DnaA1−86) junction to prevent splicing.

CO[C@@]12[C@H](COC(N)=O)C3=C(C(=O)C(C)=C(N)C3=O)N1C[C@@H]1N[C@@H]12 [mitomycin C]
Increase in β-galactosidase activity (recA-lacZ) [1]: about 3 fold

B1: cyclic DnaA1−86: spliced cyclic fragment of amino acids 1−86 (Domain I) of E. coli DnaA produced by SICLOPPS (protein, UniProt P03004 1-86, looked up, fragment)
chain: MSLSLWQQCLARLQDELPATEFSMWIRPLQAELSDNTLALYAPNRFVLDWVRDKYLNNINGLLTSFCGADAPQLRFEVGTKPVTQT
modifications: cyclized by SICLOPPS
notes: spliced cyclic fragment of amino acids 1−86 (Domain I) of E. coli DnaA produced by SICLOPPS
Effect of intracellular expression on E. coli growth and morphology (E. coli): inhibition of growth and cell filamentation
